The assay deals with IDO (Homo sapiens, UniProt P14902). As to the kind of experiment: LLE_IDO_ABS_DR (IDO assay).

Each structure is given as a SMILES string.

Chain of IDO (P14902 whole entry): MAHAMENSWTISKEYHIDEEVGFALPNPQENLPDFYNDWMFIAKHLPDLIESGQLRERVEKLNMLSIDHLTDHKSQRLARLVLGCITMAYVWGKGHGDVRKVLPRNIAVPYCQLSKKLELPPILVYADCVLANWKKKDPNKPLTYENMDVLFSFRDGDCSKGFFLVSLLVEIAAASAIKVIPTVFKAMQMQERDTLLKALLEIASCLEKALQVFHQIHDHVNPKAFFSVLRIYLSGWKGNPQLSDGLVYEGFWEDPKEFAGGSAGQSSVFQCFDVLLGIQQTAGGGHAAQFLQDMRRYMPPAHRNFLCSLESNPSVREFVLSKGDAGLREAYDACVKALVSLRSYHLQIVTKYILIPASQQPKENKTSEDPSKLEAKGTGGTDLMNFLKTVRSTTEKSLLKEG

A word on the IC50: it is the point on the concentration scale where inhibition reaches its midpoint. A high value points to a need for much substance. `Cc1cc(NC(=O)Nc2cc(-c3ccccc3-c3nnn[nH]3)ccc2N2CCCc3ccccc32)on1` [Example 366, 1-(4-(3,4-Dihydroquinolin-1(2H)-yl)-2′-(1H-tetrazol-5-yl)-[1,1′-biphenyl]-3-yl)-3-(3-methylisoxazol-5-yl)urea] returned an IC50 of 5010 nM. `CC(C)CN(CC(C)C)c1ccc(-c2ccccc2-c2nnn[nH]2)cc1NC(=O)Nc1cc(F)cc(Cl)c1` [Example 251, 1-(3-chloro-5-fluorophenyl)-3-(4-(diisobutylamino)-2′-(1H-tetrazol-5-yl)-[1,1′-biphenyl]-3-yl)urea] came in with an IC50 of 90 nM. As for `Cc1ccc(NC(=O)Nc2cc(-c3ccccc3-c3nnn[nH]3)ccc2N(CC(C)C)CC(F)(F)F)cc1` [Example 475], the figure is 50 nM; as for `Cc1ccc(NC(=O)Nc2cc(-c3cc(F)ccc3C(=O)O)ccc2N(CC(C)C)C(C)C)cc1` [Example 149, 5-fluoro-4′-(isobutyl(isopropyl)amino)-3′-(3-p-tolylureido)biphenyl-2-carboxylic acid], 60 nM. As for `CCN(CC(C)(C)C)c1ccc(-c2cc(F)ccc2C(=O)O)cc1NC(=O)Nc1ccc(C)cc1` [Example 113, 4′-(ethyl(neopentyl)amino)-5-fluoro-3′-(3-p-tolylureido)biphenyl-2-carboxylic acid], the IC50 came to 400 nM. In turn, `Cc1ccc(NC(=O)Nc2cc(-c3ccccc3-c3nnn[nH]3)ccc2N(CC(C)C)C2CCC2)cc1` [Example 184, 1-(4-(cyclobutyl(isobutyl)amino)-2′-(1H-tetrazol-5-yl)-[1,1′-biphenyl]-3-yl)-3-(p-tolyl)urea] showed an IC50 of 10 nM.

Take `COc1ccc(-c2ccc(N(CC(C)C)CC(C)C)c(NC(=O)Nc3ccc(C)cc3)c2)c(NS(=O)(=O)C(F)(F)F)c1` [Example 71, N-(4′-(diisobutylamino)-4-methoxy-3′-(3-p-tolylureido)biphenyl-2-yl)-1,1,1-trifluoromethane-sulfonamide]: the IC50 came to 1740 nM. As for `CC(C)CN(CC(C)C)c1ccc(-c2ccccc2C(=O)O)cc1NC(=O)Nc1ccc(F)cc1F` [Example 138, 3′-(3-(2,4-difluorophenyl)ureido)-4′-(diisobutylamino) biphenyl-2-carboxylic acid], it took 6.24 nM to reach half-maximal inhibition (IC50). This IC50 is about 280-fold lower than that of the compound before. As to `CCCN(Cc1ccccc1)c1ccc(-c2ccccc2-c2nnn[nH]2)cc1NC(=O)Nc1ccc(C)cc1` [Example 185, 1-(4-(benzyl(propyl)amino)-2′-(1H-tetrazol-5-yl)-[1,1′-biphenyl]-3-yl)-3-(p-tolyl)urea], inhibition was half-maximal at 2.63 nM (IC50).

`O=C(Nc1cc(-c2ccccc2-c2nnn[nH]2)ccc1N(CCCC(F)(F)F)Cc1ccc(Cl)cc1)Nc1ccccc1C(F)(F)F` [Example 321, 1-(4-((4-chlorobenzyl)(4,4,4-trifluorobutyl)amino)-2′-(1H-tetrazol-5-yl)-[1,1′-biphenyl]-3-yl)-3-(2-(trifluoromethyl)phenyl)urea]: it took 610 nM to reach half-maximal inhibition (IC50). `Cc1ccc(NC(=O)Nc2cc(-c3ccccc3C(=O)O)ccc2N(CCC(F)(F)F)C2CCCCC2)cc1` [Example 197, 4′-(cyclohexyl(3,3,3-trifluoropropyl)amino)-3′-(3-(p-tolyl)ureido)-[1,1′-biphenyl]-2-carboxylic acid] displayed an IC50 of 10 nM.

For the compound `CC(C)CN(CC(C)C)c1ccc(-c2ccccc2-c2nnn[nH]2)cc1NC(=O)NCC1CCCCC1` [Example 268, 1-(cyclohexylmethyl)-3-(4-(diisobutylamino)-2′-(1H-tetrazol-5-yl)-[1,1′-biphenyl]-3-yl)urea], the IC50 is 830 nM. Compound `CC(C)CN(CC(C)C)c1ccc(-c2ccccc2-c2nnn[nH]2)cc1NC(=O)Nc1cc(C(N)=O)ccc1Cl` [Example 254, 4-chloro-3-(3-(4-(diisobutylamino)-2′-(1H-tetrazol-5-yl)-[1,1′-biphenyl]-3-yl)ureido)benzamide] displayed an IC50 of 6070 nM.

With `CC(C)CN(CC(C)C)c1ccc(-c2ccccc2-c2nnn[nH]2)cc1NC(=O)Nc1ccc(F)c(C(F)(F)F)c1` [Example 271, 1-(4-(diisobutylamino)-2′-(1H-tetrazol-5-yl)-[1,1′-biphenyl]-3-yl)-3-(4-fluoro-3-(trifluoromethyl)phenyl) urea], the IC50 was found to be 1010 nM. The figure for `CC(C)CN(c1ccc(-c2ccccc2-c2nnn[nH]2)cc1NC(=O)Nc1ccccc1F)C(C)C` [Example 153, 1-(2-fluorophenyl)-3-(4-(isobutyl (isopropyl)amino)-2′-(1H-tetrazol-5-yl)biphenyl-3-yl)urea] is 5.16 nM; for `Cc1ccc(NC(=O)Nc2cc(-c3cc(F)ccc3C(=O)O)ccc2N(CCC(F)(F)F)Cc2cccc(Cl)c2)cc1` [Example 12, 4′-((3-Chlorobenzyl)(3,3,3-trifluoropropyl)amino)-5-fluoro-3′-(3-(p-tolyl)ureido)-[1,1′-biphenyl]-2-carboxylic acid] it is 220 nM.

Turning to `CCN(CC(C)(C)C)c1ccc(-c2ccccc2-c2nnn[nH]2)cc1NC(=O)Nc1ccc(C)cc1` [Example 110, 1-(4-(ethyl(neopentyl)amino)-2′-(1H-tetrazol-5-yl)biphenyl-3-yl)-3-p-tolylurea], the IC50 was 40 nM. The compound `Cc1ccc(NC(=O)Nc2cc(-c3ccccc3C(=O)O)ccc2N(CC2CC2)CC2CC2)cc1` [Example 67, 4′-(bis (cyclopropylmethyl)amino)-3′-(3-p-tolylureido)biphenyl-2-carboxylic acid] returned an IC50 of 350 nM. This IC50 is about 8.8-fold higher than that of the compound before. For the compound `O=C(Nc1cc(-c2ccccc2-c2nnn[nH]2)ccc1N(CCC(F)(F)F)Cc1ccc(C(F)(F)F)cc1)Nc1ccccc1C(F)(F)F` [Example 328, 1-(2′-(1H-tetrazol-5-yl)-4-((4-(trifluoromethyl)benzyl)(3,3,3-trifluoropropyl)amino)-[1,1′-biphenyl]-3-yl)-3-(2-(trifluoromethyl)phenyl)urea], the IC50 was 390 nM. Turning to `Cc1ccc(NC(=O)Nc2cc(-c3ccoc3C(=O)O)ccc2N(CC(C)C)CC(C)C)cc1` [Example 152, 3-(4-(diisobutylamino)-3-(3-p-tolylureido)phenyl)furan-2-carboxylic acid], the IC50 is 770 nM. For `CCCN(c1ccc(-c2ccccc2C(=O)O)cc1NC(=O)Nc1ccc(C)cc1)C1CCCC1` [Example 165, 4′-(cyclopentyl(propyl)amino)-3′-(3-p-tolylureido)biphenyl-2-carboxylic acid], the IC50 was determined as 10 nM. In turn, `O=C(Nc1ccc(OC(F)(F)F)cc1)Nc1cc(-c2ccccc2-c2nnn[nH]2)ccc1N(CCC(F)(F)F)Cc1ccc(F)cc1C(F)(F)F` [Example 339, 1-(4-((4-fluoro-2-(trifluoromethyl)benzyl)(3,3,3-trifluoropropyl)amino)-2′-(1H-tetrazol-5-yl)-[1,1′-biphenyl]-3-yl)-3-(4-(trifluoromethoxy)phenyl)urea] came in with a half-inhibitory concentration (IC50) of 160 nM. In turn, `Cc1ccc(NC(=O)Nc2cc(-c3cc(F)ccc3C(=O)O)ccc2N(CC(C)C)C2CCC2)cc1` [Example 182, 4′-(cyclobutyl(isobutyl)amino)-5-fluoro-3′-(3-(p-tolyl)ureido)-[1,1′-biphenyl]-2-carboxylic acid] had a half-inhibitory concentration (IC50) of 50 nM. As for `COc1ccccc1NC(=O)Nc1cc(-c2ccccc2-c2nnn[nH]2)ccc1N(CC(C)C)CC(C)C` [Example 281, 1-(4-(diisobutylamino)-2′-(1H-tetrazol-5-yl)biphenyl-3-yl)-3-(2-methoxyphenyl)urea], the figure is 1450 nM. On to `O=C(Nc1ccc(OC(F)(F)F)cc1)Nc1cc(-c2ccccc2-c2nnn[nH]2)ccc1N(CCC(F)(F)F)Cc1ccc(Cl)cc1Cl` [Example 337, 1-(4-((2,4-dichlorobenzyl)(3,3,3-trifluoropropyl)amino)-2′-(1H-tetrazol-5-yl)-[1,1′-biphenyl]-3-yl)-3-(4-(trifluoromethoxy)phenyl)urea], for which the IC50 stood at 410 nM. For `COCCN(Cc1ccc(Cl)cc1)c1ccc(-c2ccccc2C(=O)O)cc1NC(=O)Nc1ccc(C)cc1` [Example 192, 4′-((4-chlorobenzyl)(2-methoxyethyl)amino)-3′-(3-(p-tolyl)ureido)-[1,1′-biphenyl]-2-carboxylic acid], 7.82 nM corresponded to half-maximal inhibition (IC50). With `O=C(Nc1ccc(OC(F)(F)F)cc1)Nc1cc(-c2ccccc2-c2nnn[nH]2)ccc1N(CCC(F)(F)F)Cc1ccc(F)cc1` [Example 323, 1-(4-((4-fluorobenzyl)(3,3,3-trifluoropropyl)amino)-2′-(1H-tetrazol-5-yl)-[1,1′-biphenyl]-3-yl)-3-(4-(trifluoromethoxy)phenyl)urea], the IC50 stood at 540 nM. Against the preceding compound, the IC50 is about 69-fold higher. In the case of `CC(C)CN(CCC1CC1)c1ccc(-c2ccccc2-c2nnn[nH]2)cc1NC(=O)Nc1ccccc1F` [Example 133, 1-(4-((2-cyclopropylethyl) (isobutyl)amino)-2′-(1H-tetrazol-5-yl)biphenyl-3-yl)-3-(2-fluorophenyl)urea], 6.45 nM corresponded to half-maximal inhibition (IC50). On to `Cc1ccc(NC(=O)Nc2cc(-c3ccccc3-c3nnn[nH]3)ccc2N(CC(C)C)CC(C)CC(F)(F)F)cc1` (stereo not drawn) [Example 27, 1-(4-(Isobutyl(4,4,4-trifluoro-2-methylbutyl)amino)-2′-(1H-tetrazol-5-yl)-[1,1′-biphenyl]-3-yl)-3-(p-tolyl)urea], for which the IC50 was 2.55 nM.

For the compound `CC(C)CN(c1ccc(-c2ccccc2C(=O)O)cc1NC(=O)Nc1ccccc1F)C(C)C` [Example 154, 3′-(3-(2-fluorophenyl)ureido)-4′-(isobutyl(isopropyl)amino)biphenyl-2-carboxylic acid], half-maximal inhibition (IC50) required 30 nM. As to `CC(C)CN(c1ccc(-c2ccccc2C(=O)O)cc1NC(=O)Nc1ccc(F)cc1F)C(C)C` [Example 157, 3′-(3-(2,4-difluorophenyl)ureido)-4′-(isobutyl(isopropyl)amino)biphenyl-2-carboxylic acid], the IC50 amounted to 20 nM. This IC50 lies about 1.5-fold lower than the previous one. As to `CC(C)CN(CC(C)C)c1ccc(-c2ccccc2-c2nnn[nH]2)cc1NC(=O)Nc1ccccc1OC(F)F` [Example 280, 1-(2-(difluoromethoxy)phenyl)-3-(4-(diisobutylamino)-2′-(1H-tetrazol-5-yl)biphenyl-3-yl)urea], it took 2390 nM to reach half-maximal inhibition (IC50). `Cc1ccc(NC(=O)Nc2cc(-c3ccncc3C(=O)O)ccc2N(CC(C)C)CC(C)C)cc1` [Example 159, 4-(4-(diisobutylamino)-3-(3-p-tolylureido)phenyl) nicotinic acid] showed an IC50 of 980 nM.
